Laboratory results reported in patent US11912723B2, “KRAS modulators and uses thereof” (Quanta Therapeutics, Inc., priority 2022, dated 2024).
pIC50: −log10 of the molar value.

Columns and labels:
KRAS G12D/RAF1 = molecular target: T1, KRAS G12D/RAF1 (Homo sapiens, UniProt P01116, G12D); assay: Protein-protein interaction (PPI) HTRF assay KRAS G12D/RAF1; type: binding; details: KRAS G12D/RAF1, GppNHp-loaded KRAS; 30 minutes pre-incubation
T1 construct: KRAS (1-169) proteins were expressed in E. coli at 18° C; His6-MBP (N, cleaved yes); made in house; host or cells: E. coli
T1 sequence (P01116 1-169 isoform P01116-2 G12D): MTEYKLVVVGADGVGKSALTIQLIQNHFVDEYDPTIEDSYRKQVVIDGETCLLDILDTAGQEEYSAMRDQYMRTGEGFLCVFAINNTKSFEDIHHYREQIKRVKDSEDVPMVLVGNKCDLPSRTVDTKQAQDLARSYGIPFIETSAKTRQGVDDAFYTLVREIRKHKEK
Method in brief: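 Biotinylated GppNHp-loaded RAS (1-169) on streptavidin-d2 acceptor and His-RAF1 RBD (52-131) on anti-His Tb donor, each prepared at 16 nM in pH 7.5 Tris buffer. Compound preincubated with RAS 30 min, then RAF1 added for 1 h at room temperature. IC50 from HTRF 665/615 ratio, normalized to no compound (0%) and untagged RAF1 (100%).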

[1] = molecular target: T2, GST-tagged KRAS G12D (2-169) (Homo sapiens, UniProt P01116, G12D); assay: Nucleotide exchange assay (NEA), HTRF of SOS-mediated GTP-DY-647P1 binding; type: biochemical; details: 5 nM GST-KRAS G12D, 20 nM SOScat, 150 nM GTP; compound 1 h at RT
T2 construct: GST-tagged KRAS^G12D (2-169, Reaction Biology, MSC-11-539); purchased Reaction Biology MSC-11-539 (KRAS G12D); MSC-11-502 (SOS1cat)
T2 sequence (P01116 2-169 isoform P01116-2 G12D): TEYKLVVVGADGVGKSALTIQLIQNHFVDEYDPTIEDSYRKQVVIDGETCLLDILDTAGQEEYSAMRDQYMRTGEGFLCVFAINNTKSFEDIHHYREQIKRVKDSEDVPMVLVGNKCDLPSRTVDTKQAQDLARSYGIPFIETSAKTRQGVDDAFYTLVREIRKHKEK
Method in brief: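 SOS1cat (564-1049)-driven loading of GTP-DY-647P1 onto KRAS G12D, read by HTRF with anti-GST Tb cryptate donor; compound preincubated with KRAS 1 h at RT. Final 5 nM KRAS, 20 nM SOScat, 150 nM GTP, pH 7.3 HEPES buffer; read up to 90 min at RT. Blanked to no-SOS1; 4-parameter fit of % inhibition.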

Row | Structure (SMILES) | pIC50 (KRAS G12D/RAF1) | pIC50 [1]
1 | F[C@H]1CN2CCC[C@@]2(COc2nc3c(c(N4CCCCCC4)n2)COC2(CCCc4c(Br)cccc42)C3)C1 (stereo partly drawn) [Compound 5, 4-(azepan-1-yl)-5′-bromo-2-[[(2R,8S)-2-fluoro-1,2,3,5,6,7-hexahydropyrrolizin-8-yl]methoxy]spiro[5,8-dihydropyrano[4,3-d]pyrimidine-7,1′-tetralin]] | 4.00 to 5.00 | 4.70 to 6.00
2 | F[C@H]1CN2CCC[C@@]2(COc2nc3c(c(N4C[C@H]5CC[C@@H](C4)N5)n2)COC2(CCCc4c(Br)cccc42)C3)C1 (stereo partly drawn) [Compound 10, 5′-bromo-4-(3,8-diazabicyclo[3.2.1]octan-3-yl)-2-[[(2R,8S)-2-fluoro-1,2,3,5,6,7-hexahydropyrrolizin-8-yl]methoxy]spiro[5,8-dihydropyrano[4,3-d]pyrimidine-7,1′-tetralin]] | < 4.00 | 7.00 to 8.00
3 | Oc1ccc2c(c1)C1(CCC2)Cc2nc(OC[C@@]34CCCN3C[C@H](F)C4)nc(N3CCCC(O)CC3)c2CO1 (stereo partly drawn) [Compound 14, 2-[[(2S,8R)-2-fluoro-1,2,3,5,6,7-hexahydropyrrolizin-8-yl]methoxy]-4-(4-hydroxyazepan-1-yl)spiro[5,8-dihydropyrano[4,3-d]pyrimidine-7,4′-tetralin]-6′-ol] | < 4.00 | 4.70 to 6.00
4 | OC1CCCN(c2nc(OC[C@@]34CCCN3C[C@H](F)C4)nc3c2COC2(CCCc4c(Cl)cccc42)C3)CC1 (stereo partly drawn) [Compound 15, 1-[5′-chloro-2-[[(2R,8S)-2-fluoro-1,2,3,5,6,7-hexahydropyrrolizin-8-yl]methoxy]spiro[5,8-dihydropyrano[4,3-d]pyrimidine-7,1′-tetralin]-4-yl]azepan-4-ol] | < 4.00 | 4.70 to 6.00
5 | N#CC1CCCN(c2nc(OC[C@@]34CCCN3C[C@H](F)C4)nc3c2COC2(CCc4c(Cl)cccc42)C3)CC1 (stereo partly drawn) [Compound 16, 1-(4-chloro-2′-(((2R,7aS)-2-fluorotetrahydro-1H-pyrrolizin-7a(5H)-yl)methoxy)-2,3,5′,8′-tetrahydrospiro[indene-1,7′-pyrano[4,3-d]pyrimidin]-4′-yl)azepane-4-carbonitrile] | < 4.00 | 4.70 to 6.00
6 | OC1CCCN(c2nc(OC[C@@]34CCCN3C[C@H](F)C4)nc3c2COC2(CCCc4ccc(Cl)cc42)C3)CC1 (stereo partly drawn) [Compound 17, 1-(7-chloro-2′-(((2R,7aS)-2-fluorotetrahydro-1H-pyrrolizin-7a(5H)-yl)methoxy)-3,4,5′,8′-tetrahydro-2H-spiro[naphthalene-1,7′-pyrano[4,3-d]pyrimidin]-4′-yl)azepan-4-ol] | 4.00 to 5.00 | 4.70 to 6.00
7 | F[C@H]1CN2CCC[C@@]2(COc2nc3c(c(N4CCC=CCC4)n2)COC2(CCc4c(Cl)cccc42)C3)C1 (stereo partly drawn) [Compound 18, 4′-chloro-2-[[(2R,8S)-2-fluoro-1,2,3,5,6,7-hexahydropyrrolizin-8-yl]methoxy]-4-(2,3,6,7-tetrahydroazepin-1-yl)spiro[5,8-dihydropyrano[4,3-d]pyrimidine-7,1′-indane]] | 4.00 to 5.00 | < 4.70
8 | CN(C)C(=O)c1cc2n(n1)CCCN(c1nc(OC[C@@]34CCCN3C[C@H](F)C4)nc3c1CO[C@]1(CCc4c(Cl)cccc41)C3)C2 [Compound 27B, 5-[(7R)-4′-chloro-2-[[(2R,8S)-2-fluoro-1,2,3,5,6,7-hexahydropyrrolizin-8-yl]methoxy]spiro[5,8-dihydropyrano[4,3-d]pyrimidine-7,1′-indane]-4-yl]-N,N-dimethyl-4,6,7,8-tetrahydropyrazolo[1,5-a][1,4]diazepine-2-carboxamide] | 4.00 to 5.00 | > 8.00
9 | CN1Cc2c(nc(OC[C@@]34CCCN3C[C@H](F)C4)nc2N2CCCCCC2)C[C@]12CCc1c(Cl)cccc12 [Compound 28A, (7S)-4-(azepan-1-yl)-4′-chloro-2-[[(2R,8S)-2-fluoro-1,2,3,5,6,7-hexahydropyrrolizin-8-yl]methoxy]-6-methyl-spiro[5,8-dihydropyrido[4,3-d]pyrimidine-7,1′-indane]] | < 4.00 | 4.70 to 6.00
10 | N#CNC1CCCN(c2nc(OC[C@@]34CCCN3C[C@H](F)C4)nc3c2COC2(CCc4c(Cl)cccc42)C3)C1 (stereo partly drawn) [Compound 29, [1-[4′-chloro-2-[[(2R,8S)-2-fluoro-1,2,3,5,6,7-hexahydropyrrolizin-8-yl]methoxy]spiro[5,8-dihydropyrano[4,3-d]pyrimidine-7,1′-indane]-4-yl]-3-piperidyl]cyanamide] | 4.00 to 5.00 | 6.00 to 7.00
11 | CN(C)C(=O)c1cc2n(n1)CCCN(c1nc(OC[C@@]34CCCN3C[C@H](F)C4)nc3c1CN(C)C1(CCCc4ccc(O)cc41)C3)C2 (stereo partly drawn) [Compound 39, 5-[7′-hydroxy-6-methyl-2-[[(2R,8S)-2-fluoro-1,2,3,5,6,7-hexahydropyrrolizin-8-yl]methoxy]spiro[5,8-dihydropyrido[4,3-d]pyrimidine-7,1′-tetralin]-4-yl]-N,N-dimethyl-4,6,7,8-tetrahydropyrazolo[1,5-a][1,4]diazepine-2-carboxamide] | < 4.00 | > 8.00
12 | CN(C)C(=O)c1cc2n(n1)CCCN(c1nc(OC[C@@]34CCCN3C[C@H](F)C4)nc3c1CN(C)[C@@]1(CCCc4ccc(O)cc41)C3)C2 [Compound 39A, 5-[(7S)-2-[[(2R,8S)-2-fluoro-1,2,3,5,6,7-hexahydropyrrolizin-8-yl]methoxy]-7′-hydroxy-6-methyl-spiro[5,8-dihydropyrido[4,3-d]pyrimidine-7,1′-tetralin]-4-yl]-N,N-dimethyl-4,6,7,8-tetrahydropyrazolo[1,5-a][1,4]diazepine-2-carboxamide] | 4.00 to 5.00 | > 8.00
13 | Cc1c(C(=O)N(C)C)nn2c1CN(c1nc(OC[C@@]34CCCN3C[C@H](F)C4)nc3c1CO[C@@]1(CCc4c(Cl)cccc41)C3)CCC2 [Compound 42, 5-[(7S)-4′-chloro-2-[[(2R,8S)-2-fluoro-1,2,3,5,6,7-hexahydropyrrolizin-8-yl]methoxy]spiro[5,8-dihydropyrano[4,3-d]pyrimidine-7,1′-indane]-4-yl]-N,N,3-trimethyl-4,6,7,8-tetrahydropyrazolo[1,5-a][1,4]diazepine-2-carboxamide] | 4.00 to 5.00 | > 8.00
14 | O=C(c1nn2c(c1Cl)CN(c1nc(OC[C@@]34CCCN3C[C@H](F)C4)nc3c1CO[C@@]1(CCc4c(Cl)cccc41)C3)CCC2)N1CCOCC1 [Compound 45, [3-chloro-5-[(7S)-4′-chloro-2-[[(2R,8S)-2-fluoro-1,2,3,5,6,7-hexahydropyrrolizin-8-yl]methoxy]spiro[5,8-dihydropyrano[4,3-d]pyrimidine-7,1′-indane]-4-yl]-4,6,7,8-tetrahydropyrazolo[1,5-a][1,4]diazepin-2-yl]-morpholino-methanone] | 4.00 to 5.00 | > 8.00
15 | C[C@@]1(NC#N)CCCN(c2nc(OC[C@@]34CCCN3C[C@H](F)C4)nc3c2COC2(CCc4c(Cl)cccc42)C3)C1 (stereo partly drawn) [Compound 46A, [(3R)-1-[(7*)-4′-chloro-2-[[(2R,8S)-2-fluoro-1,2,3,5,6,7-hexahydropyrrolizin-8-yl]methoxy]spiro[5,8-dihydropyrano[4,3-d]pyrimidine-7,1′-indane]-4-yl]-3-methyl-3-piperidyl]cyanamide; 2,2,2-trifluoroacetic acid] | 4.00 to 5.00 | 6.00 to 7.00
16 | CN(C)C(=O)c1nn2c(c1Cl)CN(c1nc(OCC3(CN4CCOCC4)CC3)nc3c1CO[C@@]1(CCc4c(Cl)cccc41)C3)CCC2 [Compound 47, 3-chloro-5-[(7S)-4′-chloro-2-[[1-(morpholinomethyl)cyclopropyl]methoxy]spiro[5,8-dihydropyrano[4,3-d]pyrimidine-7,1′-indane]-4-yl]-N,N-dimethyl-4,6,7,8-tetrahydropyrazolo[1,5-a][1,4]diazepine-2-carboxamide] | < 4.00 | > 8.00
17 | O=C(c1nn2c(c1Cl)CN(c1nc(OC[C@@]34CCCN3C[C@H](F)C4)nc3c1CO[C@@]1(CCc4c(Cl)cccc41)C3)CCC2)N1CCNCC1 [Compound 49, [3-chloro-5-[(7S)-4′-chloro-2-[[(2R,8S)-2-fluoro-1,2,3,5,6,7-hexahydropyrrolizin-8-yl]methoxy]spiro[5,8-dihydropyrano[4,3-d]pyrimidine-7,1′-indane]-4-yl]-4,6,7,8-tetrahydropyrazolo[1,5-a][1,4]diazepin-2-yl]-piperazin-1-yl-methanone] | 4.00 to 5.00 | > 8.00
18 | CN1CCN(C(=O)c2nn3c(c2Cl)CN(c2nc(OC[C@@]45CCCN4C[C@H](F)C5)nc4c2CO[C@@]2(CCc5c(Cl)cccc52)C4)CCC3)CC1 [Compound 50, [3-chloro-5-[(7S)-4′-chloro-2-[[(2R,8S)-2-fluoro-1,2,3,5,6,7-hexahydropyrrolizin-8-yl]methoxy]spiro[5,8-dihydropyrano[4,3-d]pyrimidine-7,1′-indane]-4-yl]-4,6,7,8-tetrahydropyrazolo[1,5-a][1,4]diazepin-2-yl]-(4-methylpiperazin-1-yl)methanone] | 4.00 to 5.00 | > 8.00
